Laboratory results: patent US20230002374A1, “GPR52 MODULATOR COMPOUNDS” (Heptares Therapeutics Limited, priority 2019, published 2023)
Where two headings read alike, the source gives them in different places.

Target: human GPR52 (Homo sapiens, UniProt Q9Y2T5)
Assay: GPR52 Agonist Functional cAMP Assay;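 note: HEKf cells transduced with GPR52 BacMam for 24 h, 2000 per well, exposed to compounds 30 min at 37° C with 0.5 mM IBMX, cAMP read by HTRF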
Conditions: for EC50: pEC50 average, HEKf cells infected with human GPR52 BacMam virus, cAMP HTRF, 30 min at 37° C.
[1] = maximal response normalised to DMSO (0%) and maximal compound 7m (J. Med. Chem., 2014, 57, 5226) response (100%)

Chain of human GPR52 (Q9Y2T5 whole entry): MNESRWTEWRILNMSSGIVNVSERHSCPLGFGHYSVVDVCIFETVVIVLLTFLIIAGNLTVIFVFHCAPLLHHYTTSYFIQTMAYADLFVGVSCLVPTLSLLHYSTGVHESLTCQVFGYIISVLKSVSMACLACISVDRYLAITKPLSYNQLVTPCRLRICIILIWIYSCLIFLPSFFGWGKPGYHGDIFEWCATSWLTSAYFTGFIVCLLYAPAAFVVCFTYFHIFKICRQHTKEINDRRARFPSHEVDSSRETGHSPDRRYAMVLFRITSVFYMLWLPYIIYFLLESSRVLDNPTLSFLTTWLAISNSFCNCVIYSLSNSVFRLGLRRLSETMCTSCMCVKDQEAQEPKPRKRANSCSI
Procedure: Following BacMam infection, cells were pelleted by centrifugation (335 g, 5 min), resuspended in cell freezing medium (Sigma) and frozen at −150° C. until required. On experiment day, 25 nL GPR52 compound dilutions, prepared in DMSO, were stamped onto proxiplates (PerkinElmer) by a LabCyte ECHO acoustic dispenser. Frozen cells were thawed and resuspended in assay stimulation buffer (Cisbio) containing 0.5 mM 3-iso-butyl-1-methylxanthine (IBMX, Sigma) to achieve a density of 2000 cells per well. 10 μl cells were added to assay plates using a Multidrop Combi Reagent Dispenser (ThermoFisher) before centrifugation (335 g, 1 min). Cells were incubated with compounds at 37° C. for 30 min prior to addition of cAMP detection reagents (HiRange cAMP kit, Cisbio) which were prepared according to the manufacturer's instructions. Plates were shaken for 1 h at room temperature before reading on a PHERAstar FS plate reader (BMG Labtech) using standard HTRF settings.

SMILES | Emax [1] | EC50 | Emax
O=C1NCCc2c1cnn2-c1ccnc(Cc2cc(F)c(Cl)c(F)c2)c1 [Example 58, 1-(2-(4-chloro-3,5-difluorobenzyl)pyridin-4-yl)-1,5,6,7-tetrahydro-4H-pyrazolo[4,3-c]pyridin-4-one] | 79% | 100 nM | –
O=C1NCCc2c1cnn2-c1ccnc(Cc2ccc(F)c(Cl)c2)c1 [Example 25, 1-(2-(3-chloro-4-fluorobenzyl)pyridin-4-yl)-1,5,6,7-tetrahydro-4H-pyrazolo[4,3-c]pyridin-4-one] | 89% | 158 nM | –
Cc1nn(-c2ccnc(Cc3cc(F)c(F)c(Cl)c3)c2)c2c1C(=O)NCC2 [Example 84, 1-(2-(3-chloro-4,5-difluorobenzyl)pyridin-4-yl)-3-methyl-1,5,6,7-tetrahydro-4H-pyrazolo[4,3-c]pyridin-4-one] | – | 2.51 nM | 95%
O=C1NCCc2nn(-c3cc(Cc4cccc(C(F)(F)F)c4)ccn3)nc21 [Example 43, 2-(4-(3-(trifluoromethyl)benzyl)pyridin-2-yl)-2,5,6,7-tetrahydro-4H-[1,2,3]triazolo[4,5-c]pyridin-4-one] | 86% | 251 nM | –
O=C1NCCCc2c1cnn2-c1cc(Cc2cccc(C(F)(F)F)c2)ccn1 [Example 11, 1-(4-(3-(trifluoromethyl)benzyl)pyridin-2-yl)-5,6,7,8-tetrahydropyrazolo[4,3-c]azepin-4(1H)-one] | 86% | 63.1 nM | –
COc1ccc(Cc2cc(-n3ncc4c3CCNC4=O)ccn2)cc1C(F)(F)F [Example 55, 1-(2-(4-methoxy-3-(trifluoromethyl)benzyl)pyridin-4-yl)-1,5,6,7-tetrahydro-4H-pyrazolo[4,3-c]pyridin-4-one] | 69% | 398 nM | –
O=C1NCCc2c1cnn2-c1ccnc(Cc2cc(Cl)cc(Cl)c2)c1 [Example 31, 1-(2-(3,5-dichlorobenzyl)pyridin-4-yl)-1,5,6,7-tetrahydro-4H-pyrazolo[4,3-c]pyridin-4-one] | 95% | 126 nM | –
CC1Cc2c(cnn2-c2ccnc(Cc3cc(F)cc(C(F)(F)F)c3)c2)C(=O)N1 (single isomer, unassigned) [Example 40 Isomer 1, 1-(2-(3-fluoro-5-(trifluoromethyl)benzyl)pyridin-4-yl)-6-methyl-1,5,6,7-tetrahydro-4H-pyrazolo[4,3-c]pyridin-4-one] | 95% | 31.6 nM | –
O=C1NCCc2c1cnn2-c1ccnc(Cc2cccc(C(F)(F)F)c2)c1 [Example 22, 1-(2-(3-(trifluoromethyl)benzyl)pyridin-4-yl)-1,5,6,7-tetrahydro-4H-pyrazolo[4,3-c]pyridin-4-one] | 91% | 200 nM | –
O=C1NCCCc2c1nnn2-c1cc(Cc2cc(F)cc(C(F)(F)F)c2)ccn1 [Example 46, 1-(4-(3-fluoro-5-(trifluoromethyl)benzyl)pyridin-2-yl)-5,6,7,8-tetrahydro-[1,2,3]triazolo[4,5-c]azepin-4(1H)-one] | 90% | 200 nM | –
O=C1NCCc2c1c(C(F)(F)F)nn2-c1ccnc(Cc2cc(F)cc(C(F)(F)F)c2)c1 [Example 116, 1-(2-(3-fluoro-5-(trifluoromethyl)benzyl)pyridin-4-yl)-3-(trifluoromethyl)-1,5,6,7-tetrahydro-4H-pyrazolo[4,3-c]pyridin-4-one] | 95% | 5.01 nM | –
CC(C)c1cc(F)cc(Cc2cc(-n3ncc4c3CCNC4=O)ccn2)c1 [Example 71, 1-(2-(3-fluoro-5-isopropylbenzyl)pyridin-4-yl)-1,5,6,7-tetrahydro-4H-pyrazolo[4,3-c]pyridin-4-one] | 91% | 20 nM | –
O=C1NCCc2c1ccn2-c1ccnc(Cc2cc(F)cc(C(F)(F)F)c2)c1 [Example 51, 1-(2-(3-fluoro-5-(trifluoromethyl)benzyl)pyridin-4-yl)-1,5,6,7-tetrahydro-4H-pyrrolo[3,2-c]pyridin-4-one] | 95% | 126 nM | –
Cc1nn(-c2cc(Cc3cc(F)cc(C(F)(F)F)c3)ccn2)c2c1C(=O)NCC2 [Example 95, 1-(4-(3-fluoro-5-(trifluoromethyl)benzyl)pyridin-2-yl)-3-methyl-1,5,6,7-tetrahydro-4H-pyrazolo[4,3-c]pyridin-4-one] | 98% | 6.31 nM | –
O=C1NCCc2c1cnn2-c1ccnc(Cc2ccc(C(F)(F)F)cc2)c1 [Example 32, 1-(2-(4-(trifluoromethyl)benzyl)pyridin-4-yl)-1,5,6,7-tetrahydro-4H-pyrazolo[4,3-c]pyridin-4-one] | 61% | 398 nM | –
O=C1NCCCc2c1cnn2-c1cc(Cc2cc(F)cc(C(F)(F)F)c2)ccn1 [Example 10, 1-(4-(3-fluoro-5-(trifluoromethyl)benzyl)pyridin-2-yl)-5,6,7,8-tetrahydropyrazolo[4,3-c]azepin-4(1H)-one] | 90% | 7.94 nM | –
COc1cc(Cc2cc(-n3ncc4c3CCNC4=O)ccn2)ccc1C(F)(F)F [Example 60, 1-(2-(3-methoxy-4-(trifluoromethyl)benzyl)pyridin-4-yl)-1,5,6,7-tetrahydro-4H-pyrazolo[4,3-c]pyridin-4-one] | 83% | 398 nM | –

SMILES | Emax [1] | EC50 | Emax
O=C1NCCc2c1cnn2-c1ccnc(Cc2cc(F)c(F)c(F)c2)c1 [Example 24, 1-(2-(3,4,5-trifluorobenzyl)pyridin-4-yl)-1,5,6,7-tetrahydro-4H-pyrazolo[4,3-c]pyridin-4-one] | 95% | 316 nM | –
O=C1NCCOc2nn(-c3ccnc(Cc4cc(F)cc(C(F)(F)F)c4)c3)cc21 [Example 112, 2-(2-(3-fluoro-5-(trifluoromethyl)benzyl)pyridin-4-yl)-6,7-dihydro-2H-pyrazolo[4,3-f][1,4]oxazepin-4(5H)-one] | 77% | 398 nM | –
O=C1NCCc2c1cnn2-c1ccnc(Cc2cc(F)cc(C3(C(F)(F)F)CC3)c2)c1 [Example 74, 1-(2-(3-fluoro-5-(1-(trifluoromethyl)cyclopropyl)benzyl)pyridin-4-yl)-1,5,6,7-tetrahydro-4H-pyrazolo[4,3-c]pyridin-4-one] | 53% | 501 nM | –
Cc1nn(-c2ccnc(Cc3ccc(F)c(Cl)c3)c2)c2c1C(=O)NCC2 [Example 80, 1-(2-(3-chloro-4-fluorobenzyl)pyridin-4-yl)-3-methyl-1,5,6,7-tetrahydro-4H-pyrazolo[4,3-c]pyridin-4-one] | 97% | 10 nM | –
O=C1NCCc2c1cnn2-c1cncc(Oc2cc(F)cc(C(F)(F)F)c2)c1 [Example 103, 1-(5-(3-fluoro-5-(trifluoromethyl)phenoxy)pyridin-3-yl)-1,5,6,7-tetrahydro-4H-pyrazolo[4,3-c]pyridin-4-one] | 68% | 1000 nM | –
COc1cc(Cc2cc(-n3ncc4c3CCNC4=O)ccn2)cc(C(F)(F)F)c1 [Example 57, 1-(2-(3-methoxy-5-(trifluoromethyl)benzyl)pyridin-4-yl)-1,5,6,7-tetrahydro-4H-pyrazolo[4,3-c]pyridin-4-one] | 44% | 794 nM | –
O=C1NCCc2nn(-c3cc(Cc4cccc(C(F)(F)F)c4)ccn3)cc21 [Example 8, 2-(4-(3-(trifluoromethyl)benzyl)pyridin-2-yl)-2,5,6,7-tetrahydro-4H-pyrazolo[4,3-c]pyridin-4-one] | 75% | 316 nM | –
Cc1cc(Cc2cc(-n3nc(C)c4c3CCNC4=O)ccn2)cnc1F [Example 76, 1-(2-((6-fluoro-5-methylpyridin-3-yl)methyl)pyridin-4-yl)-3-methyl-1,5,6,7-tetrahydro-4H-pyrazolo[4,3-c]pyridin-4-one] | 94% | 79.4 nM | –
Cc1cnc(Cc2cc(F)cc(C(F)(F)F)c2)cc1-n1ncc2c1CCNC2=O [Example 108, 1-(2-(3-fluoro-5-(trifluoromethyl)benzyl)-5-methylpyridin-4-yl)-1,5,6,7-tetrahydro-4H-pyrazolo[4,3-c]pyridin-4-one] | 80% | 79.4 nM | –
Cc1nn(-c2ccnc(Cc3ccc(OC(F)F)c(F)c3)c2)c2c1C(=O)NCC2 [Example 81, 1-(2-(4-(difluoromethoxy)-3-fluorobenzyl)pyridin-4-yl)-3-methyl-1,5,6,7-tetrahydro-4H-pyrazolo[4,3-c]pyridin-4-one] | 70% | 10 nM | –
Cc1nn(-c2ccnc(Cc3cc(F)cc(Cl)c3)c2)c2c1C(=O)NCC2 [Example 79, 1-(2-(3-chloro-5-fluorobenzyl)pyridin-4-yl)-3-methyl-1,5,6,7-tetrahydro-4H-pyrazolo[4,3-c]pyridin-4-one] | 99% | 12.6 nM | –
O=C1NCCc2c1cnn2-c1ccnc(Cc2cc(F)cc(S(F)(F)(F)(F)F)c2)c1 [Example 61, 1-(2-(3-fluoro-5-(pentafluoro-λ^6-sulfaneyl)benzyl)pyridin-4-yl)-1,5,6,7-tetrahydro-4H-pyrazolo[4,3-c]pyridin-4-one] | 99% | 50.1 nM | –
O=C1NCCc2c1cnn2-c1ccnc(Cc2cc(C(F)(F)F)cc(C(F)(F)F)c2)c1 [Example 34, 1-(2-(3,5-bis(trifluoromethyl)benzyl)pyridin-4-yl)-1,5,6,7-tetrahydro-4H-pyrazolo[4,3-c]pyridin-4-one] | 54% | 1000 nM | –
O=C(c1cc(F)cc(C(F)(F)F)c1)c1cc(-n2ncc3c2CCNC3=O)ccn1 [Example 35, 1-(2-(3-fluoro-5-(trifluoromethyl)benzoyl)pyridin-4-yl)-1,5,6,7-tetrahydro-4H-pyrazolo[4,3-c]pyridin-4-one] | 40% | 3160 nM | –
Cc1cc(F)cc(Cc2cc(-n3ncc4c3CCNC4=O)ccn2)c1 [Example 26, 1-(2-(3-fluoro-5-methylbenzyl)pyridin-4-yl)-1,5,6,7-tetrahydro-4H-pyrazolo[4,3-c]pyridin-4-one] | 95% | 79.4 nM | –
O=C1NCCOc2c1cnn2-c1cc(Cc2cc(F)cc(C(F)(F)F)c2)ccn1 [Example 14, 1-(4-(3-fluoro-5-(trifluoromethyl)benzyl)pyridin-2-yl)-6,7-dihydro-1H-pyrazolo[4,3-f][1,4]oxazepin-4(5H)-one] | 103% | 10 nM | –
